The target of series [1] is Acetylcholinesterase (Electrophorus electricus, UniProt O42275). As to the kind of experiment: Inhibition of electric eel AChE using acetylthiocholine iodide as substrate incubated for 5 mins by Ellman's method. Background: In Ellman's method for cholinesterases, released thiocholine reacts with DTNB.
Series [2] is described as follows: Antioxidant activity assessed as trolox equivalent of AAPH radical scavenging activity at 1 to 10 uM preincubated for 15 mins followed by AAPH challenge measured every min for 80 mins by ORAC-FL assay.
The target of series [3] is Cholinesterase (Equus caballus, UniProt P81908). Nature of the series: Inhibition of equine serum BChE using butyrylthiocholine iodide as substrate incubated for 5 mins by Ellman's method.
Sequence of Cholinesterase (P81908 whole entry): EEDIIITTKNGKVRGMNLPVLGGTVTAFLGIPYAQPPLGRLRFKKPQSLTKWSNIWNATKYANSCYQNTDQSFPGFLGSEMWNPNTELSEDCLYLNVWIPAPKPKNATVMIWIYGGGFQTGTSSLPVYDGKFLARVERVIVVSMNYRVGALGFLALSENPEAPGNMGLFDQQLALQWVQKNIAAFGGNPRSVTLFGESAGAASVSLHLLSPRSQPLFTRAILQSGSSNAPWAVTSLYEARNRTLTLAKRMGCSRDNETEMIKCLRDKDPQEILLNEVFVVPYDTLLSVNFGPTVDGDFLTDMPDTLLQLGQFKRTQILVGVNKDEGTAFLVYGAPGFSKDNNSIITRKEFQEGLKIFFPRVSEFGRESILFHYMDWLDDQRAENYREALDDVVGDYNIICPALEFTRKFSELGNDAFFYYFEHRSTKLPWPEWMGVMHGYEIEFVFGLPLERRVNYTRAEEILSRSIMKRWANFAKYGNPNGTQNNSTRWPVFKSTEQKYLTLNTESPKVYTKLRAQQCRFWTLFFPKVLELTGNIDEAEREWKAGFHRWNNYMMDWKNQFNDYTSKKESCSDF
The target in series [4] is Amyloid-beta precursor protein (Homo sapiens) (UniProt P05067). As to the kind of experiment: Inhibition of self-mediated amyloid beta (1 to 42) (unknown origin) aggregation at 25 uM after 48 hrs by thioflavin T fluorescence assay relative to control.
Sequence of Amyloid-beta precursor protein (Homo sapiens) (P05067 whole entry): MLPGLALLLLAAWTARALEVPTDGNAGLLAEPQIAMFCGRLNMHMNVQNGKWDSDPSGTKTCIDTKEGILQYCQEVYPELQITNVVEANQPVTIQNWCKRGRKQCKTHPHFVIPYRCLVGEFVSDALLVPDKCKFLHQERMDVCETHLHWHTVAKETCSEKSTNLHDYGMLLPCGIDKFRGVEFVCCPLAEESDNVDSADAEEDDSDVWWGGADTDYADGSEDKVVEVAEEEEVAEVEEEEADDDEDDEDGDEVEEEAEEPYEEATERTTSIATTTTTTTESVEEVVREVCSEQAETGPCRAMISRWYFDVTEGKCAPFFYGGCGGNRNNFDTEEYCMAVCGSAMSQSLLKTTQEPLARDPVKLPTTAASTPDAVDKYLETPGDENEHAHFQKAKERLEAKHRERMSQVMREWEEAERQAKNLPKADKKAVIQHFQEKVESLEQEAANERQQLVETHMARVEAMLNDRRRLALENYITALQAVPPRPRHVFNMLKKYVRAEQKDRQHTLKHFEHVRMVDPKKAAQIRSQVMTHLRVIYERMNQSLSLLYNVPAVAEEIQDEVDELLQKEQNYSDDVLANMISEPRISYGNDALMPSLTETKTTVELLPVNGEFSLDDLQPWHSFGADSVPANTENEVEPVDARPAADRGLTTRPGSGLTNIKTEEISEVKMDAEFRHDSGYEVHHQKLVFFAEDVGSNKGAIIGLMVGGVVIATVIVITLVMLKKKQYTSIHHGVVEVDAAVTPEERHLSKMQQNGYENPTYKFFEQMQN
Series [5] can be described thus: Selectivity ratio of IC50 for equine serum BChE to IC50 for electric eel AChE.
The target of series [6] is Acetylcholinesterase (Electrophorus electricus) (UniProt O42275). Nature of the series: Ratio of donepezil IC50 to compound IC50 for electric eel AChE using acetylthiocholine iodide as substrate incubated for 5 mins by Ellman's method.
Sequence of Acetylcholinesterase (Electrophorus electricus) (O42275 24-633 limits assumed): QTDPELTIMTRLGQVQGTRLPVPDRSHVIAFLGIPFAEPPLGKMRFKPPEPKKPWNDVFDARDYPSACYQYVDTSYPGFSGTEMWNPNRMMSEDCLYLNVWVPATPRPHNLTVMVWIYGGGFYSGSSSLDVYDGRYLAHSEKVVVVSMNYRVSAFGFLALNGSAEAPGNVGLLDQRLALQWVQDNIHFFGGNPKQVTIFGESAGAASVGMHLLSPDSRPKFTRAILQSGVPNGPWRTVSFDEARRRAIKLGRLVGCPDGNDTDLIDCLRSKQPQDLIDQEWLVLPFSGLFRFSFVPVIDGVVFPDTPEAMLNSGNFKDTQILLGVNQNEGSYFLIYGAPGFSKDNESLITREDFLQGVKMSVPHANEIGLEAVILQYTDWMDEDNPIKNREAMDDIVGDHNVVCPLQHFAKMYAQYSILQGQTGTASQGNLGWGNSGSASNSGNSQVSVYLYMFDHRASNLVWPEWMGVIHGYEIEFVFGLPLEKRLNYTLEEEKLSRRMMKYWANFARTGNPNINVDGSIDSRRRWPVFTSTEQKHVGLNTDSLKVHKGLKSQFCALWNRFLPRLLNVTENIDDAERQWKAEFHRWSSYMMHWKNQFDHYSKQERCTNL
Series [7] has as its target Amyloid-beta precursor protein (Homo sapiens) (UniProt P05067). Nature of the series: Ratio of curcumin to compound for self-mediated amyloid beta (1 to 42) (unknown origin) aggregation at 25 uM after 48 hrs by thioflavin T fluorescence assay relative to control.

The record followed here is ChEMBL document CHEMBL3396949, “Synthesis, biological evaluation and molecular docking study of novel piperidine and piperazine derivatives as multi-targeted agents to treat Alzheimer's disease” (Bioorg Med Chem, 2015).

Sequence of Acetylcholinesterase (O42275 whole entry): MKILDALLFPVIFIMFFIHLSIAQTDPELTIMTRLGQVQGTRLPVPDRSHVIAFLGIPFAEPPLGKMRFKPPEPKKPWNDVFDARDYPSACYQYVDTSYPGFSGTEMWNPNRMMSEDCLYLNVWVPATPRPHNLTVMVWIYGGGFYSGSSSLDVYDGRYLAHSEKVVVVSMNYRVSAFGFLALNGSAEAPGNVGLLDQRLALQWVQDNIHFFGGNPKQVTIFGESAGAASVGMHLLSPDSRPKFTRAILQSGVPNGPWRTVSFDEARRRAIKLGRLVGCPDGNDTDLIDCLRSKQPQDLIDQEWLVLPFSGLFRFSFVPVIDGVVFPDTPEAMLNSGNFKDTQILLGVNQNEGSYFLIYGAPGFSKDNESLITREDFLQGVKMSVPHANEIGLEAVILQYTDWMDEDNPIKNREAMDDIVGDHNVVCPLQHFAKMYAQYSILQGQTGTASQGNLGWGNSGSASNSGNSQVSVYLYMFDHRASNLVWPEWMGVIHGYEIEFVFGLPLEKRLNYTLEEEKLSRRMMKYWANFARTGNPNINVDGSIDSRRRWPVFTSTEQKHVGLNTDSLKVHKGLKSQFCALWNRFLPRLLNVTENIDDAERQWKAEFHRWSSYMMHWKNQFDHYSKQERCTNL

As a reminder, the IC50 is the point on the concentration scale where inhibition reaches its midpoint. Read a high IC50 as a need for much substance. For orientation: inhibition means the percentage by which the read-out fell short of the control. A lower inhibition goes with little suppression. For `COc1cc(CNCCCN2CCC(Cc3ccccc3)CC2)ccc1O`, the IC50 in series [1] amounted to 6.83 nM; in series [3] it was 7.61 nM. Besides, in series [2], the Activity came out at 3.74 equiv. Besides, the inhibition in series [4] turned out to be 88%. For the same compound, the Ratio IC50 in series [5] was 1.11; in series [6] it was 7. Further, the Ratio in series [7] is 1.51.

Consider `COc1cc(CNCCCCN2CCC(Cc3ccccc3)CC2)cc(OC)c1OC`, for which the IC50 was determined as 12.8 nM in series [1] and 16.7 nM in series [3]. The Activity in series [2] was 2.45 equiv. In series [4], this compound gave an inhibition of 85.4%. Further, the Ratio IC50 in series [5] is 1.3. Besides, the Ratio in series [7] was 1.51.

For the compound `COc1ccc(CNCCCN2CCC(Cc3ccccc3)CC2)cc1OC`, the IC50 in series [1] was found to be 75.3 nM; in series [3], 190 nM. The Activity in series [2] is listed as 1.22 equiv. In series [4], this compound yielded an inhibition of 84.4%. Further, in series [5], the Ratio IC50 worked out at 2.52. In addition, the Ratio in series [7] was 1.51.

For `COc1cc(CNCCN2CCC(Cc3ccccc3)CC2)cc(OC)c1OC`, the IC50 is 35.8 nM in series [1] and 53.4 nM in series [3]. Besides, in series [2], the Activity was found to be 1.38 equiv. In series [4], this compound showed an inhibition of 75%. In series [5], the Ratio IC50 was found to be 1.48.

Take `COc1cc(CNCCCCN2CCN(C(c3ccccc3)c3ccccc3)CC2)cc(OC)c1OC`: in series [2], the Activity is on record as 1.63 equiv. The inhibition in series [4] was 57.3%.

As to `COc1cc(CNCCN2CCN(Cc3ccccc3)CC2)cc(OC)c1OC`, the concentration for half-maximal inhibition (IC50) in series [1] was 96.5 nM; in series [3], 75.1 nM. For the same compound, in series [2], the Activity is recorded as 2.77 equiv. For the same compound, the inhibition in series [4] is 75.5%. Also, the Ratio IC50 in series [5] was 0.77.

Take `c1ccc(CC2CCN(CCCNCc3cccnc3)CC2)cc1`: the figures for the IC50 in series [1] and in series [3] were 2.13 nM and 81.7 nM, respectively. Also, in series [2], the Activity was 1.18 equiv. This compound returned an inhibition in series [4] of 88.8%. Further, the Ratio IC50 in series [5] came to 38.4; in series [6], 22. In addition, in series [7], the Ratio was determined as 1.51.

On to `COc1ccc(CNCCN2CCN(Cc3ccccc3)CC2)cc1OC`, for which the figures for the IC50 in series [1] and in series [3] were 682 nM and 274 nM, respectively. Moreover, the Activity in series [2] stood at 0.95 equiv. Moreover, the inhibition in series [4] was 80.7%. The Ratio IC50 in series [5] was determined as 0.4. Further, in series [7], the Ratio stood at 1.71.

Turning to `c1ccc(CC2CCN(CCNCc3cccnc3)CC2)cc1`, the IC50 in series [1] was determined as 32.8 nM; in series [3] it was 101 nM. Also, the Activity in series [2] was determined as 1.32 equiv. In series [4], the inhibition is 84.4%. For the same compound, in series [5], the Ratio IC50 stood at 3.07. In addition, the Ratio in series [7] was determined as 1.51.

Take `COc1cc(CNCCN2CCN(Cc3ccccc3)CC2)ccc1O`: the figures for the 50% inhibitory concentration (IC50) in series [1] and in series [3] were 181 nM and 18.3 nM, respectively. In addition, in series [2], the Activity amounted to 1.28 equiv. Besides, the inhibition in series [4] is 71.9%. For the same compound, the Ratio IC50 in series [5] came to 0.1.

With `COc1cc(CNCCCCN2CCC(Cc3ccccc3)CC2)ccc1O`, the IC50 in series [1] worked out at 11.5 nM; in series [3], 3.87 nM. Besides, the Activity in series [2] was found to be 4.45 equiv. The inhibition in series [4] stood at 71.3%. The Ratio IC50 in series [5] stood at 0.33.

On to `COc1ccc(CNCCCN2CCN(Cc3ccccc3)CC2)cc1OC`, for which the IC50 worked out at 112 nM in series [1] and 331 nM in series [3]. Further, in series [2], the Activity is on record as 1.4 equiv. This compound also came in with an inhibition in series [4] of 79.7%. Further, the Ratio IC50 in series [5] worked out at 2.94. Besides, the Ratio in series [7] stood at 1.71.

Regarding `COc1cc(CNCCCN2CCN(Cc3ccccc3)CC2)ccc1O`, the half-inhibitory concentration (IC50) in series [1] was found to be 13.5 nM; in series [3] it was 18.8 nM. Further, in series [2], the Activity is 1.99 equiv. The compound also returned an inhibition in series [4] of 67.2%. Also, the Ratio IC50 in series [5] is 1.38.

For the compound `COc1ccc(CNCCCCN2CCN(C(c3ccccc3)c3ccccc3)CC2)cc1OC`, the Activity in series [2] turned out to be 1.35 equiv. The compound also yielded an inhibition in series [4] of 57.8%.

Regarding `COc1ccc(CNCCN2CCN(C(c3ccccc3)c3ccccc3)CC2)cc1OC`, the Activity in series [2] was determined as 1.77 equiv. This compound came in with an inhibition in series [4] of 67.6%.

On to `COc1cc(CNCCCCN2CCN(Cc3ccccc3)CC2)cc(OC)c1OC`, for which the IC50 in series [1] stood at 138 nM; in series [3], 32.7 nM. The Activity in series [2] is 1.24 equiv. Besides, the inhibition in series [4] came out at 80.4%. The Ratio IC50 in series [5] was determined as 0.23. Moreover, the Ratio in series [7] was 1.71.

In the case of `c1ccc(CN2CCN(CCNCc3cccnc3)CC2)cc1`, the IC50 in series [1] came out at 140 nM; in series [3], 129 nM. For the same compound, the Activity in series [2] amounted to 1.02 equiv. In addition, the inhibition in series [4] is 56.8%. Also, the Ratio IC50 in series [5] amounted to 0.92.

With `COc1cc(CNCCCN2CCC(Cc3ccccc3)CC2)cc(OC)c1OC`, the half-inhibitory concentration (IC50) is 8.56 nM in series [1] and 23.1 nM in series [3]. The Activity in series [2] turned out to be 1.41 equiv. The compound also showed an inhibition in series [4] of 78.2%. Moreover, the Ratio IC50 in series [5] was 2.69. Moreover, the Ratio in series [7] amounted to 1.51.

`c1ccc(CC2CCN(CCCCNCc3cccnc3)CC2)cc1`: the IC50 in series [1] came to 7.72 nM; in series [3] it was 34 nM. Also, in series [2], the Activity came out at 1.59 equiv. Moreover, the inhibition in series [4] came to 78.6%. Further, the Ratio IC50 in series [5] was 4.4; in series [6] it was 6. In addition, the Ratio in series [7] came out at 1.51.

Regarding `c1ccc(CN2CCN(CCCNCc3cccnc3)CC2)cc1`, the figures for the IC50 in series [1] and in series [3] were 23.1 nM and 209 nM, respectively. Further, the Activity in series [2] came out at 0.65 equiv. The inhibition in series [4] came to 63%. In addition, the Ratio IC50 in series [5] stood at 9.03.

For the compound `COc1cc(CNCCCN2CCN(C(c3ccccc3)c3ccccc3)CC2)ccc1O`, the Activity in series [2] worked out at 2.68 equiv. This compound registered an inhibition in series [4] of 54.2%.

As for `COc1ccc(CNCCCCN2CCN(Cc3ccccc3)CC2)cc1OC`, the figures for the IC50 in series [1] and in series [3] were 163 nM and 142 nM, respectively. Besides, the Activity in series [2] was 0.61 equiv. This compound also showed an inhibition in series [4] of 67.7%. Further, the Ratio IC50 in series [5] came out at 0.86.

For the compound `COc1ccc(CNCCCN2CCN(C(c3ccccc3)c3ccccc3)CC2)cc1OC`, in series [2], the Activity worked out at 2.21 equiv. The inhibition in series [4] turned out to be 65.6%.

For `COc1ccc(CNCCCCN2CCC(Cc3ccccc3)CC2)cc1OC`, the half-maximal inhibitory concentration (IC50) was found to be 202 nM in series [1] and 49.1 nM in series [3]. Further, the Activity in series [2] came to 1.06 equiv. In series [4], this compound yielded an inhibition of 80.7%. For the same compound, the Ratio IC50 in series [5] was found to be 0.24. Besides, the Ratio in series [7] turned out to be 1.51.

For `COc1cc(CNCCCCN2CCN(Cc3ccccc3)CC2)ccc1O`, the results for the IC50 in series [1] and in series [3] were 136 nM and 13.9 nM, respectively. The Activity in series [2] came to 1.64 equiv. The same compound returned an inhibition in series [4] of 72.4%. Besides, the Ratio IC50 in series [5] came to 0.1.

Regarding `COc1cc(CNCCN2CCN(C(c3ccccc3)c3ccccc3)CC2)ccc1O`, the Activity in series [2] stood at 2.31 equiv. In series [4], this compound came in with an inhibition of 43.5%.

Regarding `COc1ccc(CNCCN2CCC(Cc3ccccc3)CC2)cc1OC`, the IC50 stood at 182 nM in series [1] and 77.7 nM in series [3]. In addition, the Activity in series [2] turned out to be 0.61 equiv. The inhibition in series [4] stood at 54.7%. In series [5], the Ratio IC50 was determined as 0.42.

As to `COc1cc(CNCCCN2CCN(C(c3ccccc3)c3ccccc3)CC2)cc(OC)c1OC`, the Activity in series [2] was determined as 2.47 equiv. Also, in series [4], the inhibition amounted to 68.2%.

Consider `COc1cc(CNCCCN2CCN(Cc3ccccc3)CC2)cc(OC)c1OC`, for which the IC50 in series [1] came to 81.8 nM; in series [3], 41.5 nM. Moreover, the Activity in series [2] is 1.31 equiv. In series [4], this compound yielded an inhibition of 79.7%. Also, in series [5], the Ratio IC50 was 0.5. Also, the Ratio in series [7] came out at 1.71.

Regarding `COc1cc(CNCCN2CCN(C(c3ccccc3)c3ccccc3)CC2)cc(OC)c1OC`, the Activity in series [2] is given as 2.38 equiv. In series [4], this compound registered an inhibition of 68.7%.

`COc1cc(CNCCN2CCC(Cc3ccccc3)CC2)ccc1O`: the concentration for half-maximal inhibition (IC50) came to 38.3 nM in series [1] and 4.2 nM in series [3]. The Activity in series [2] was determined as 4.04 equiv. For the same compound, the inhibition in series [4] came out at 84.4%. Moreover, in series [5], the Ratio IC50 was determined as 0.1. In addition, the Ratio in series [7] was determined as 1.51.

For the compound `c1ccc(CN2CCN(CCCCNCc3cccnc3)CC2)cc1`, the IC50 in series [1] was 134 nM; in series [3] it was 104 nM. In series [2], the Activity amounted to 0.64 equiv. Also, the inhibition in series [4] came out at 69.3%. Further, the Ratio IC50 in series [5] amounted to 0.78.
